{"source": "patent US20150192589A1", "about": "“METHOD USING FLUORESCENT TURN-ON PROBES FOR CELL-SPECIFIC DETECTION” (Agency for Science, Technology and Research, priority 2014, published 2015)", "key": {"β-galactosidase": {"system": "β-galactosidase", "experiment": "Hydrolysis of probe by β-galactosidase (fluorescence turn-on)", "format": "biochemical", "details": "KH2PO4 buffer pH 4.5, 30° C., excitation 365 nm, emission 542 nm", "method": "Excited at 365 nm. Fluorescence intensity was measured at 542 nm.\nAfter reaction of the probe with β-galactosidase, compound 9 is obtained."}, "esterase [1]": {"system": "esterase", "experiment": "Effect of esterase inhibitor on esterase activity (Lyso-1 fluorescence readout)", "format": "biochemical", "details": "Lyso-1 10 μM, esterase 0.50 U mL^−1", "method": "(§1) For example, the addition of 0.1 mM AEBSF causes a fluorescence decrease in 10% at 532 nm compared with that without AEBSF. The higher concentrations of AEBSF such as 0.4 and 1.0 mM lead to larger fluorescence decrease of 40% and 65%, respectively. […] Thus, the probe Lyso-1 has a use to screen inhibitors of esterase."}, "esterase in MCF-7 cells": {"system": "esterase in MCF-7 cells", "experiment": "Esterase activity in living cells by Lyso-1 fluorescence imaging after inhibitor pretreatment", "format": "cell-based", "details": "MCF-7 cells pretreated with 0.4 mM", "method": "as §1"}, "[2]": {"experiment": "Photostability by continuous confocal scanning of stained cells", "format": "physicochemical", "details": "approximately 8 min continuous confocal scanning, stained MCF-7 cells; Lyso-1 1 μM, LysoTracker Red 50 nM", "method": "FIGS. 10A-10E show (FIG. 10E) Signal loss (%) of fluorescent emission of Lyso-1 (1 μM) and LysoTracker® Red (50 nM) with increasing time. Excitation wavelength: 405 nm (for Lyso-1) and 560 nm (for LysoTracker® Red); emission filter: 515-560 nm (for Lyso-1) and 581-688 nm (for LysoTracker® Red); (FIGS. 10A-10D) fluorescent images of living MCF-7 cells stained with Lyso-1(1 μM) and LysoTracker® Red (50 nM) at 0 and 5 min.\nIt has been shown that the signal loss of Lyso-1 is less than 20% in approximately 8 min. In contrast, LysoTracker® Red lost almost approximately 70% of its fluorescence signal.\nFor Photostability study, MCF-7 cells were stained with 1.0 μM Lyso-1 and LysoTracker® Red for 1 h at 37° C. under 5% CO2. The changes of fluorescence intensity with scan time were determined by CLSM (Zeiss LSM 410, Jena, Germany).\nExcitation wavelength: 405 nm (for Lyso-1, 1% laser power) and 560 nm (for LysoTracker® Red, 18% laser power); emission filter: 515-560 nm (for Lyso-1) and 581-688 nm (for LysoTracker® Red). The data were obtained from replicate experiments (n=3)."}, "[3]": {"system": "lysosomal esterase in MCF-7 cells", "experiment": "Real-time fluorescence imaging of lysosomal esterase activity", "format": "cell-based", "method": "As the incubation time elapses, the fluorescence intensity increases quickly which reaches a maximum at 8 min. The real-time fluorescence images shown in FIG. 12 indicate that the probe is non-fluorescent in the cell culture media.\n[…] The intensity images of Lyso-1 were recorded with the emission in the range of 515-560 nm. Excitation wavelength: 405 nm."}, "esterase [4]": {"system": "esterase", "experiment": "Fluorescence response of Lyso-1 upon incubation with esterase", "format": "biochemical", "method": "The measurements were performed in 10 mM PBS (pH 7.4) with λex/em=356/532 nm.\nFor esterase at 0.50 U mL^−1, the fluorescence increase could reach a plateau in 15 min, which is sigmoidal in shape due to the two-stepwise sequential hydrolysis of Lyso-1 to 2. The fluorescence could only be fully generated after the two-step reaction completed and formation of intramolecular hydrogen bonds. […] The detection limit (3 S/m, in which S is the standard deviation of blank measurements, and m is the slope of the linear equation) is determined to be 2.4×10-3 U mL^−1.\n(§2) The UV-vis absorption spectra were obtained using UV-vis spectrometer (Shimadzu, UV-1700, Japan). PL measurements were carried out on a Perkin-Elmer LS-55 equipped with a xenon lamp excitation source and a Hamamatsu (Japan) 928 PMT, using 90° angle detection for solution samples. The cells were imaged by fluorescence microscope (Nikon Al Confocal microscope). The time-dependence fluorescence scans of Lyso-1 were conducted with microplate reader (TECAN). ^1H and ^13C NMR spectra were measured on a Bruker ARX 400 NMR spectrometer. The molecular mass was acquired using ion trap-time-of-flight mass spectrometry (MS-IT-TOF) (Shimadzu)."}, "esterase [5]": {"system": "esterase", "experiment": "Selectivity of Lyso-1 fluorescence response, esterase versus interference substances", "format": "biochemical", "details": "Lyso-1 10 μM; esterase 0.50 U mL^−1 vs MgCl2, CaCl2, vitamin C, H2O2, BO3−, lysozyme, cathepsin B; PBS pH 7.4, 37° C."}, "lysosomes of MCF-7 cells": {"system": "lysosomes of MCF-7 cells", "experiment": "In situ imaging of lysosomal esterase / colocalization with LysoTracker Red", "format": "cell-based", "method": "FIGS. 9A-9H show the colocalization imaging of MCF-7 cells stained with 1.0 μM Lyso-1 and 50 nM LysoTracker®-red for 30 min at 37° C. (FIG. 9A and FIG. 9E) Bright-field image. (FIG. 9B and FIG. 9F) Confocal image from Lyso-1 on channel 1 (λex=405 nm, λem=515-560 nm). (FIG. 9C and FIG. 9G) Confocal image from LysoTracker® Red on channel 2 (λex=559 nm, λem=585-610 nm). (FIG. 9D and FIG. 9H) Merged image of channels 1 and 2. Scale bar=20 μm.\nA discrete labeling pattern that matched the distribution of lysosomes was obtained using Lyso-1 (FIG. 9a-d). […] To verify that the probes can selectively target lysosomes, the probe 6 without of lysosome targeting morpholines was also tested for cell imaging as a comparison. […] These experiments clearly verified that Lyso-1 can selectively target lysosome.\nMCF-7 cells were seeded at a density of 2×10^4/well in the chamber (LAB-TEK, Chambered Coverglass System) and grown for 18 h at 37° C. in a humidified 5% CO2 incubator. The cells were washed twice with 1×PBS buffer and 0.3 mL fresh serum-free medium containing 1.0 μM Lyso-1 solution was then added to the chamber.\nFor co-staining between Lyso-1 and LysoTracker® Red, the MCF-7 cells were first incubated with 1.0 μM Lyso-1 solution for 2 h, and then the cells were rinsed and incubated in the medium containing 100 nM Lyso-tracker Red for 1 h.\nLyso-1 was excited at 405 nm (1% laser power) and the fluorescence was collected at 515-560 nm; LysoTracker® Red was excited at 560 nm (18% laser power) and fluorescence was collected at 581-688 nm."}, "[6]": {"system": "MCF-7 breast cancer cells", "experiment": "Cell viability by MTT assay", "format": "cell-based", "details": "1, 2, 4, 8, or 16 μM for 24 h", "method": "The samples were incubated with 1, 2, 4, 8, or 16 μM Lyso-1 for 24 h, and the cell viabilities are close to 100% under the testing conditions, indicative of low cytotoxicity of the probe.\nMCF-7 cancer cells were seeded in 96-well plates at a density of 4×10^4 cells/mL. After 24 h incubation, the cells were exposed to a series of doses of the probe Lyso-1 at 37° C. After the designated time intervals, the sample wells were washed twice with 1×PBS buffer and freshly prepared MTT solution (0.5 mg/mL, 100 μL) in culture medium was added into each sample well. The MTT medium solution was carefully removed after 3 h incubation in the incubator for the sample wells, whereas the control wells without addition of MTT solution were washed twice with 1×PBS buffer. DMSO (100 μL) was then added into each well and the plate was gently shaken for 10 min at room temperature to dissolve all the precipitates formed. The absorbance of individual wells at 570 nm was then monitored by the microplate Reader. The absorbance of MTT in the sample well was determined by the differentiation between the absorbance of the sample well and that of the respective control well. Cell viability was expressed by the ratio of the absorbance of MTT in the sample wells to that of the cells incubated with culture medium only."}, "mitochondria": {"system": "mitochondria", "experiment": "Mitochondria imaging", "format": "cell-based", "method": "FIGS. 30A-30C show Colocalization imaging of Hela cells stained with 5.0 μM MitoGreen-2 and 50 nM MitoTracker®-red.\nMitoGreen-1 and MitoGreen-2 can be easily modified by adding further reactive groups to detect certain enzymes or bioactive molecules."}, "[7]": {"experiment": "Photoluminescence / AIE properties in solvent-water mixtures", "format": "physicochemical", "from_the_text": "At ˜532 nm, there is almost no fluorescence for Lyso-1, whereas a strong emission with a 200-fold enhancement is observed for 2 from the keto tautomer ([…]). The weak emission at a short wavelength (λmax=˜441 nm) is from the enol tautomer of 2 (FIG. 1). It is noted that there is almost no overlap between the absorption and emission spectrum for salicyladazine dye 2, which is highly desirable for imaging applications.\nWith gradual addition of water into THF from fw=0 to 80 vol %, the emission intensity keeps slow increasing. […] At fw=99 vol %, a 14-fold enhancement of emission has been observed as compared to that in THF, showing an obvious AIE effect.\nas §2"}}}
{"smiles": "OCC1O[C@@H](Oc2ccccc2/C=N/N=C/c2ccccc2OC2O[C@H](CO)[C@H](O)[C@H](O)[C@H]2O)C(O)C(O)C1O", "note": "(stereo in doubt) [β-gal-1, (2S,3S,4R,5S,6S)-2-(hydroxymethyl)-6-(2-((E)-((E)-(2-(((2R,3R,4S,5R,6R)-3,4,5-trihydroxy-6-(hydroxymethyl)tetrahydro-2H-pyran-2-yl)oxy)benzylidene)hydrazono)methyl)phenoxy)tetrahydro-2H-pyran-3,4,5-triol]", "values": [{"measurement": "fluorescence upon reaction with β-galactosidase", "setting": "β-galactosidase", "value": "leads to fluorescence"}]}
{"smiles": "NCCc1ccc(S(=O)(=O)F)cc1", "note": "[AEBSF, 4-(2-aminoethyl)benzenesulfonyl fluoride]", "values": [{"measurement": "fluorescence decrease at 532 nm compared with that without AEBSF", "setting": "esterase [1]; 0.1 mM AEBSF", "value": 10, "unit": "%"}, {"measurement": "fluorescence decrease at 532 nm compared with that without AEBSF", "setting": "esterase [1]; 0.4 mM AEBSF", "value": 40, "unit": "%"}, {"measurement": "fluorescence decrease at 532 nm compared with that without AEBSF", "setting": "esterase [1]; 1.0 mM AEBSF", "value": 65, "unit": "%"}, {"measurement": "Lyso-1 fluorescence in pretreated cells", "setting": "esterase in MCF-7 cells", "value": "obviously decreased fluorescence"}]}
{"smiles": "CC(=O)Oc1cc(OCCCCN2CCOCC2)ccc1/C=N/N=C/c1ccc(OCCCCN2CCOCC2)cc1OC(C)=O", "note": "[Lyso-1, ((1E,1′E)-hydrazine-1,2-diylidenebis(methanylylidene))bis(3-(4-morpholinobutoxy)-6,1-phenylene) diacetate]", "values": [{"measurement": "signal loss of fluorescent emission", "setting": "[2]", "value": "less than 20%"}, {"measurement": "incubation time at which fluorescence intensity reaches a maximum", "setting": "[3]; 1.0 μM, room temperature", "value": 8, "unit": "min"}, {"measurement": "fluorescence change without esterase (stability of the probe)", "setting": "esterase [4]; control without esterase, same period of time, PBS pH 7.4", "value": "hardly changes"}, {"measurement": "time for fluorescence increase to reach a plateau", "setting": "esterase [4]; esterase 0.50 U mL^−1, Lyso-1 10 μM, 10 mM PBS pH 7.4", "value": 15, "unit": "min"}, {"measurement": "fluorescence induced by esterase relative to interferences (times brighter)", "setting": "esterase [5]", "value": "70-200 times"}, {"measurement": "overlap between fluorescence images of probe and LysoTracker Red", "setting": "lysosomes of MCF-7 cells; MCF-7 cells, 1.0 μM probe, no washing", "value": "excellent overlap"}, {"measurement": "cell viability", "setting": "[6]", "value": "~100", "unit": "%"}]}
{"smiles": "CN(C)CCNC(=O)CCc1ccc2n1[B-](F)(F)[N+]1=C(c3ccc[nH]3)C=CC1=C2", "note": "[LysoTracker® Red, reference compound]", "values": [{"measurement": "signal loss of fluorescent emission", "setting": "[2]", "value": "approximately 70%"}]}
{"smiles": "Oc1cc(OCCCCCC[P+](c2ccccc2)(c2ccccc2)c2ccccc2)ccc1/C=N/N=C/c1ccc(OCCCCCC[P+](c2ccccc2)(c2ccccc2)c2ccccc2)cc1O.[Br-].[Br-]", "note": "[MitoGreen-1, (((((1E,1′E)-hydrazine-1,2-diylidenebis(methanylylidene))bis(3-hydroxy-4,1-phenylene))bis(oxy))bis(hexane-6,1-diyl))bis(triphenylphosphonium) bromide]", "values": [{"measurement": "binding to mitochondria", "setting": "mitochondria", "value": "bind well to mitochondria"}]}
{"smiles": "Oc1cc(OCCCCCC[n+]2ccccc2)ccc1/C=N/N=C/c1ccc(OCCCCCC[n+]2ccccc2)cc1O.[Br-].[Br-]", "note": "[MitoGreen-2, 1,1′-(((((1E,1′E)-hydrazine-1,2-diylidenebis(methanylylidene))bis(3-hydroxy-4,1-phenylene))bis(oxy))bis(hexane-6,1-diyl))bis(pyridin-1-ium) bromide]", "values": [{"measurement": "binding to mitochondria", "setting": "mitochondria", "value": "bind well to mitochondria"}]}
{"smiles": "Oc1cc(OCCCCN2CCOCC2)ccc1/C=N/N=C/c1ccc(OCCCCN2CCOCC2)cc1O", "note": "[compound 2, 6,6′-((1E,1′E)-hydrazine-1,2-diylidenebis(methanylylidene))-bis(3-(4-morpholinobutoxy)-phenol)]", "values": [{"measurement": "quantum yield of keto tautomer emission (printed \"0=\")", "setting": "[7]; 10 μM in DMSO/water (1:99 v/v), ~532 nm", "value": 9.6, "unit": "%"}, {"measurement": "emission enhancement at ~532 nm compared with Lyso-1", "setting": "[7]; 10 μM in DMSO/water (1:99 v/v), λex=356 nm, keto tautomer emission", "value": 200, "unit": "fold"}, {"measurement": "enhancement of emission at fw=99 vol % compared to that in THF (AIE effect)", "setting": "[7]; THF/water, 10 μM, excitation 356 nm", "value": 14, "unit": "fold"}]}
{"smiles": "CC(=O)Oc1cc(OCCCCBr)ccc1/C=N/N=C/c1ccc(OCCCCBr)cc1OC(C)=O", "note": "[compound 6, ((1E,1′E)-hydrazine-1,2-diylidenebis(methanylylidene))bis(3-(4-bromobutoxy)-6,1-phenylene) diacetate]", "values": [{"measurement": "time after which probe turns on in the entire cells", "setting": "[3]; 5 μM", "value": 2, "unit": "h"}, {"measurement": "fluorescence of cells", "setting": "lysosomes of MCF-7 cells; MCF-7 cells incubated with 1.0 μM for 2 h", "value": "Very weak fluorescence"}, {"measurement": "staining pattern of cells", "setting": "lysosomes of MCF-7 cells; MCF-7 cells incubated with 5.0 μM", "value": "non-specific staining of the entire cell"}]}
